The text below walks through data of PMC5657534 (Nature chemical biology, 2017).

This experiment has as its target ClbH (full-length) (Escherichia coli, UniProt Q0P7J8). Put plainly: ATP-[…]PPi exchange. It counts as biochemical. Particulars: Mg2+, pH 8.3, room temperature, 1 mM amino acid.

Structures are written as SMILES.

ClbH (full-length), sequence (Q0P7J8 1-1598): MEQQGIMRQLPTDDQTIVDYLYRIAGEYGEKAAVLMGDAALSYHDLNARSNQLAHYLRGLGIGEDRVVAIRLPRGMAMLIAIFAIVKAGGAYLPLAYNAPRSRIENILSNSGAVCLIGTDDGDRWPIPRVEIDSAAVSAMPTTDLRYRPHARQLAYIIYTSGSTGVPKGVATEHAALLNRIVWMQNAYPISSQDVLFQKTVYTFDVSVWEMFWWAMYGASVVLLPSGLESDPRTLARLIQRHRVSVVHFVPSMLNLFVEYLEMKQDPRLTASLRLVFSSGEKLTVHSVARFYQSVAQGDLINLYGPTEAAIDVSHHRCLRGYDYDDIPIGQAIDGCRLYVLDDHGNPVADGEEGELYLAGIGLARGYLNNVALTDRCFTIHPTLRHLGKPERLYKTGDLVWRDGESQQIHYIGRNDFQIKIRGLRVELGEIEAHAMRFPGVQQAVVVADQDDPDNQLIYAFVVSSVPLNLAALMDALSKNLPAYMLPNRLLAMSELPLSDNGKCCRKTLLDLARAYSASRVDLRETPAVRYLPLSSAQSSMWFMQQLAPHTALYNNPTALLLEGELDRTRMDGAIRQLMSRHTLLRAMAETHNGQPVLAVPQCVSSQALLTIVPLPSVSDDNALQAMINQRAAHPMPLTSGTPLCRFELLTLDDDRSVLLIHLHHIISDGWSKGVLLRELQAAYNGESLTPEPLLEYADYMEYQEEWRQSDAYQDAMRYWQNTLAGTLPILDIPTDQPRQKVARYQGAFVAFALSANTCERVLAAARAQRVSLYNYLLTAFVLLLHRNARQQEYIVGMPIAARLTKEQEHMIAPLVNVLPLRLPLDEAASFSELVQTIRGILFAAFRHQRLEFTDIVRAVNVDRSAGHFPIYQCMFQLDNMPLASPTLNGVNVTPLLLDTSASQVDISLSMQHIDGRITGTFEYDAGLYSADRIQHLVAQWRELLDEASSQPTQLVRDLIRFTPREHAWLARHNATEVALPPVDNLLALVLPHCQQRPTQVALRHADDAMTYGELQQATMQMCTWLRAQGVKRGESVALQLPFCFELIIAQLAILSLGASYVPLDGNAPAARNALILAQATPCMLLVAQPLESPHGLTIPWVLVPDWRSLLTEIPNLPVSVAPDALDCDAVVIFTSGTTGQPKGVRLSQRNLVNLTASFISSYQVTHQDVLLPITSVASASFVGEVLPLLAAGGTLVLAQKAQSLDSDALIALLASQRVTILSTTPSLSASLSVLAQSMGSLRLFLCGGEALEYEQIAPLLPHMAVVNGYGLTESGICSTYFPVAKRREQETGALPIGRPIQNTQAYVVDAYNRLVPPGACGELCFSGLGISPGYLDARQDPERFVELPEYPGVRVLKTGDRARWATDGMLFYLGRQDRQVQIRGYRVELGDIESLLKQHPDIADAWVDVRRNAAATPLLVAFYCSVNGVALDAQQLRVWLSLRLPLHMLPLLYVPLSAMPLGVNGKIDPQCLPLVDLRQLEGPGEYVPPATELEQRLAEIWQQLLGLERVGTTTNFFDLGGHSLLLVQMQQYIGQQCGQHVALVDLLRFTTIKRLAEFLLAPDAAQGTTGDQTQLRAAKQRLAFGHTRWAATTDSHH

As to `N[C@@H](CO)C(=O)O` [L-Ser], the “ATP-[32P]PPi exchange” value was “full-length ClbH activated L-Ser and SAM (Fig. 1b)”.
